Assay results: publication PMC5361079 (Scientific Reports, 2017)
Like-named read-outs stand apart in the source and are kept apart here.

Legend:
[1] = tested on: anesthetized, male Dunkin-Hartley guinea pigs; conditions: cumulative IV infusion dose 2.5 mg/kg amiodarone alone; cited from earlier work
hiPSC-CMs = experiment: Intracellular prodrug, cleavage intermediate metabolite and NTP metabolite concentrations in hiPSC-CMs; assay type: in vitro ADME, human
Method: Approximately 18 h before dosing, iCell hiPSC-CMs were switched to iCell cardiomyocyte maintenance media free of Penicillin/Streptomycin. […] […] After the corresponding treatment, cells were washed 2x with 200 μL of ice-cold magnesium- and calcium-free PBS buffer. Cells were then lysed in 100 μL of ice-cold lysis solution (70/30 methanol/water containing 20 mM EDTA and 20 mM EGTA, pH 8) by pipetting up and down 5 times. Plates were sealed and transferred on dry ice for determination of prodrug, cleavage intermediate metabolite, and NTP metabolite concentrations. Intracellular prodrug concentrations were measured using a reversed phase HPLC- high resolution mass spectrometry method. A dimethylhexylamine based ion-pairing HPLC-MS/MS method was used to measure intracellular cleavage intermediate metabolite and NTP metabolite concentrations. Intracellular concentrations (pmol/million cells) of prodrug, cleavage intermediate metabolite, and NTP metabolite were quantitated against calibration standards of the same analytes prepared from control iCell hiPSC-CM lysates.
For prodrug analyses, full scan high resolution mass spectrometry data was collected using an Exactive™ Orbitrap mass spectrometer with an electrospray source operated in the positive ion mode. Prodrug chromatograms were extracted from full scan high resolution mass spectrometry data for the masses indicated in Supplementary Table 5. Absence of endogenous interference(s) was verified by extracting the same ion from full scan high resolution mass spectrometry chromatograms of unspiked control cell lysates. For the cleavage intermediate metabolite and NTP metabolite an electrospray MS/MS method run on a SCIEX API 4000 mass spectrometer with turboV ionspray source was used in negative ion mode monitoring the transitions indicated in Supplementary Table 5. Absence of endogenous interference(s) was verified by monitoring of the same MRM transitions for unspiked control cell lysates. Measured intracellular prodrug, cleavage intermediate metabolite, and NTP metabolite concentrations (in pmol/million cells units) were tabulated (Table 2).

[2] = tested on: conscious, male rhesus monkeys; experiment: Heart rate, MBP and ECG intervals in conscious, restrained rhesus monkeys; assay type: in vivo, rhesus monkey
Method: (§1) Arterial BP and ECG waveforms from four chronically-instrumented male, rhesus monkeys (8-16 kg at time of study, approximately 5–8 years of age), were continuously recorded (Notocord-hem™ v 4.3.0.67) and analyzed as described. Prior to study, animals were acclimated to the restraint chair and the laboratory environment over multiple sessions. […] MNI-2 was formulated in 30% Captisol®. […] Samples were placed on wet ice, centrifuged at 4 °C and plasma removed and stored at −70 °C until analysis of concentration of test agents and any metabolites of interest.

[3] = Cardiac tissue concentrations in anesthetized guinea pigs; assay type: in vivo, guinea pig; conditions: end of IV infusions, prodrug alone or + amiodarone
[4] = tested on: anesthetized, male Dunkin-Hartley guinea pigs; experiment: Heart rate in anesthetized guinea pigs, IV infusion; assay type: in vivo, guinea pig
Excerpt: Adult, male Dunkin-Hartley guinea pigs (350–550 g) were anesthetized and instrumented as previously described[7][29].

[5] = Plasma concentration in conscious rhesus monkeys; conditions: at the end of the MNI-2+amiodarone experiment
Method: as §1

hiPSC-CM syncytia = experiment: Spontaneous FP rate and IMP amplitude/beating rate in hiPSC-CM syncytia (RTCA CardioECR / RTCA Cardio); assay type: cell-based, human; conditions: for Effect on FP rate / Effect on IMP amplitude: prodrug co-administered with 0.3 μM amiodarone, steady state (4 h), spontaneously beating hiPSC-CM syncytia
Method: hiPSC-CMs (iCells®) from Cellular Dynamics International (CDI, Madison, WI, USA) were seeded onto 48-well CardioECR or 96-well Cardio E-Plates® (ACEA Biosciences Inc., San Diego, CA, USA) coated with 10 μg/mL fibronectin (Sigma Aldrich, Catalog# F1141) at 30,000 cells/well, following manufacturer’s recommendations. Cells were maintained in culture (37 °C, 5% CO2) for a period of 14 days with iCell Maintenance® media (CDI, Madison, WI, USA) exchanged every 2–3 days. Compound addition was only performed on or after Day 14 following cell seeding.
Compound stock solutions were prepared in 100% DMSO or H2O. On the day of compound addition, the media was exchanged with fresh iCell Maintenance® media and allowed to equilibrate for at least 3 h in the incubator. The plates were read on an xCELLigence® RTCA CardioECR or RTCA Cardio (ACEA Biosciences Inc., San Diego, CA, USA). Control pre-reads to establish a baseline were recorded for at least 45 minutes (4 reads at 15-min intervals) prior to compound addition. The compound stock solutions were diluted into iCell Maintenance® media and quickly added to the plate. The plate was continuously monitored for at least 18 h following compound addition. IMP data were sampled at 12 ms (83 Hz), while FP rate data were collected at 0.1 ms (10 KHz). Attachment, growth and viability of syncytia were monitored by means of the baseline IMP signal, as previously described. IMP and FP signals were only interpreted if the baseline IMP was maintained throughout the measurement period (usually ≤18 hrs) at ≥70% of the value before test compound application (pre-read value).

[6] = Plasma concentration in anesthetized guinea pigs; conditions: IV
Excerpt: Adult, male Dunkin-Hartley guinea pigs (350–550 g) were anesthetized and instrumented as previously described.

[7] = anesthetized guinea pigs, cited from earlier work
[8] = hiPSC-CMs, 10 μM prodrug + 0.3 μM amiodarone, 4 Hours
[9] = hiPSC-CMs, 10 μM prodrug + 0.3 μM amiodarone, 4 Hours, BLOQ = below 17 pmol/million cells
[10] = hiPSC-CMs, 10 μM prodrug + 0.3 μM amiodarone, 30 Min
[11] = hiPSC-CMs, 10 μM prodrug + 0.3 μM amiodarone, 30 Min, BLOQ = below 17 pmol/million cells
[12] = hiPSC-CMs, 10 μM prodrug alone, 4 Hours
[13] = hiPSC-CMs, 10 μM prodrug alone, 4 Hours, BLOQ = below 17 pmol/million cells
[14] = hiPSC-CMs, 10 μM prodrug alone, 30 Min
[15] = hiPSC-CMs, 10 μM prodrug alone, 30 Min, BLOQ = below 17 pmol/million cells
[16] = 30 Min, SOF-3 mM, SOF + A (0.3 µM amiodarone) + Ebel, LOQ=17
[17] = 10 μM prodrug in the presence of 0.3 μM amiodarone

Structure (SMILES): CCCCc1oc2ccccc2c1C(=O)c1cc(I)c(OCCN(CC)CC)c(I)c1 [amiodarone]
- HR, % change from baseline [1]: −7%

Structure (SMILES): CC(C)OC(=O)[C@@H](C)NP(=O)(OC[C@H]1O[C@@H](n2ccc(=O)[nH]c2=O)[C@](C)(F)[C@@H]1O)Oc1ccccc1 (stereo partly drawn) [MNI-2, isopropyl (2R)-2-[[[(2R,3R,4R,5R)-5-(2,4-dioxopyrimidin-1-yl)-4-fluoro-3-hydroxy-4-methyl-tetrahydrofuran-2-yl]methoxy-phenoxy-phosphoryl]amino]propanoate]
- Detection of cleavage intermediate metabolite or NTP in hiPSC-CMs (hiPSC-CMs; following application of prodrug (10 μM) ± amiodarone): no measurable concentrations
- Intracellular Concentration, Prodrug (hiPSC-CMs; [8]): 61.0 ± 3.3 pmol/million cells
- Intracellular Concentration, Cleavage Intermediate Metabolite (hiPSC-CMs; [9]): BLOQ
- Intracellular Concentration, NTP Metabolite (hiPSC-CMs; [9]): BLOQ
- Intracellular Concentration, Prodrug (hiPSC-CMs; [10]): 54.8 ± 3.3 pmol/million cells
- Intracellular Concentration, Cleavage Intermediate Metabolite (hiPSC-CMs; [11]): BLOQ
- Intracellular Concentration, NTP Metabolite (hiPSC-CMs; [11]): BLOQ
- Intracellular Concentration, Prodrug (hiPSC-CMs; [12]): 173.0 ± 133.3 pmol/million cells
- Intracellular Concentration, Cleavage Intermediate Metabolite (hiPSC-CMs; [13]): BLOQ
- Intracellular Concentration, NTP Metabolite (hiPSC-CMs; [13]): BLOQ
- Intracellular Concentration, Prodrug (hiPSC-CMs; [14]): 53.5 ± 4.5 pmol/million cells
- Intracellular Concentration, Cleavage Intermediate Metabolite (hiPSC-CMs; [15]): BLOQ
- Intracellular Concentration, NTP Metabolite (hiPSC-CMs; [15]): BLOQ
- Effect on HR ([2]; IV infusion of MNI-2 (4, then 2 mg/kg/30 min), alone or after prior administration of amiodarone (3 mg/kg/30 min)): no effect
- MBP or PR, QRS, QT ECG interval changes ([2]; IV infusion of MNI-2 alone or after pretreatment with amiodarone): did not result in MBP or PR, QRS, QT ECG interval changes
- Cleavage intermediate metabolite and NTP metabolite in cardiac tissue [3]: did not produce detectable levels
- HR, % change from baseline ([4]; coadministration of 10 mg/kg MNI-2 and 2.5 mg/kg amiodarone IV (cumulative)): −9%
- HR, % change from baseline ([4]; cumulative IV infusion dose 10 mg/kg MNI-2 alone): −3%
- Plasma concentration [5]: 3048 ± 413 ng/mL
- Effects on IMP-measured beating rate and IMP amplitude (hiPSC-CM syncytia; 10 μM prodrug combined with 0.3 μM amiodarone, up to 18 h): failed to evoke changes over each drug alone
- Effect on FP rate (hiPSC-CM syncytia): lack of effects
- Effect on IMP amplitude (hiPSC-CM syncytia): lack of effects
- Plasma concentration of parent ([6]; agent + vehicle, End of Infusion 1): 4.2 ± 2.1 µM
- Plasma concentration of parent ([6]; agent + vehicle, End of Infusion 2): 4.2 ± 0.9 µM
- Plasma concentration of parent ([6]; agent + vehicle, End of Infusion 3): 3.9 ± 0.1 µM
- Plasma concentration of parent ([6]; agent + vehicle, End of Infusion 4): 3.7 ± 1.0 µM
- Plasma concentration of parent ([6]; treatment MNI-2+AMIO, End of Infusion 1): 3.0 ± 0.8 µM
- Plasma concentration of parent ([6]; treatment MNI-2+AMIO, End of Infusion 2): 3.5 ± 1.0 µM
- Plasma concentration of parent ([6]; treatment MNI-2+AMIO, End of Infusion 3): 3.7 ± 0.6 µM
- Plasma concentration of parent ([6]; treatment MNI-2+AMIO, End of Infusion 4): 3.7 ± 0.9 µM

Structure (SMILES): CC(C)OC(=O)[C@H](C)NP(=O)(OC[C@H]1O[C@@H](n2ccc(=O)[nH]c2=O)[C@](C)(F)[C@@H]1O)Oc1ccccc1 (stereo partly drawn) [sofosbuvir, isopropyl (2S)-2-[[[(2R,3R,4R,5R)-5-(2,4-dioxopyrimidin-1-yl)-4-fluoro-3-hydroxy-4-methyl-tetrahydrofuran-2-yl]methoxy-phenoxy-phosphoryl]amino]propanoate, reference compound]
- Intracellular Concentration, Sofosbuvir (Prodrug) (hiPSC-CMs; 4 Hours, SOF-10 μM, SOF): 66.9 ± 6.8 pmol/million cells
- Intracellular Concentration, Sofosbuvir (Prodrug) (hiPSC-CMs; 4 Hours, SOF-3 mM, SOF): 19.6 ± 5.8 pmol/million cells
- Intracellular Concentration, Sofosbuvir (Prodrug) (hiPSC-CMs; 4 Hours, SOF-3 mM, SOF + A (0.3 µM amiodarone) + Ebel): 46.9 ± 8.9 pmol/million cells
- Intracellular Concentration, NTP Metabolite (hiPSC-CMs; 4 Hours, SOF-3 mM, SOF + A (0.3 µM amiodarone) + Ebel, LOQ=17): B LOQ
- Intracellular Concentration, NTP Metabolite (hiPSC-CMs; 4 Hours, SOF-3 mM, SOF, LOQ=17): B LOQ
- Intracellular Concentration, NTP Metabolite (hiPSC-CMs; 4 Hours, SOF-10 mM, SOF + A (0.3 µM amiodarone) + Ebel, LOQ=17): B LOQ
- Intracellular Concentration, Sofosbuvir (Prodrug) (hiPSC-CMs; 30 Min, SOF-10 μM, SOF + A (0.3 µM amiodarone) + Ebel): 53.4 ± 9.5 pmol/million cells
- Intracellular Concentration, Cleavage Intermediate Metabolite (hiPSC-CMs; 30 Min, SOF-10 μM, SOF + A (0.3 µM amiodarone) + Ebel, LOQ=17): B LOQ
- Intracellular Concentration, Sofosbuvir (Prodrug) (hiPSC-CMs; 30 Min, SOF-3 mM, SOF): 19.5 ± 0.9 pmol/million cells
- Intracellular Concentration, Cleavage Intermediate Metabolite (hiPSC-CMs; [16]): B LOQ
- Intracellular Concentration, NTP Metabolite (hiPSC-CMs; [16]): B LOQ
- Intracellular Concentration, NTP Metabolite (hiPSC-CMs; 30 Min, SOF-3 mM, SOF, LOQ=17): B LOQ
- Intracellular Concentration, NTP Metabolite (hiPSC-CMs; 30 Min, SOF-10 mM, SOF + A (0.3 µM amiodarone) + Ebel, LOQ=17): B LOQ
- Intracellular Concentration, NTP Metabolite (hiPSC-CMs; 30 Min, SOF-10 mM, SOF, LOQ=17): B LOQ
- Intracellular Concentration, NTP Metabolite (hiPSC-CMs; SOF-10 mM, 4 Hours, 2a (SAR164653) 50 mM, LOQ=17): B LOQ
- Intracellular Concentration, NTP Metabolite (hiPSC-CMs; SOF-10 mM, 4 Hours, 2a (SAR164653) 100 mM, LOQ=17): B LOQ
- Intracellular Concentration, NTP Metabolite (hiPSC-CMs; SOF-10 mM, 30 Min, 2a (SAR164653) 0 mM, LOQ=17): B LOQ
- Intracellular Concentration, NTP Metabolite (hiPSC-CMs; SOF-10 mM, 30 Min, 2a (SAR164653) 1 mM, LOQ=17): B LOQ
- Intracellular Concentration, NTP Metabolite (hiPSC-CMs; SOF-10 mM, 30 Min, 2a (SAR164653) 10 mM, LOQ=17): B LOQ
- Intracellular Concentration, NTP Metabolite (hiPSC-CMs; SOF-10 mM, 30 Min, 2a (SAR164653) 50 mM, LOQ=17): B LOQ
- Intracellular Concentration, NTP Metabolite (hiPSC-CMs; SOF-10 mM, 30 Min, 2a (SAR164653) 100 mM, LOQ=17): B LOQ
- Intracellular Concentration, Prodrug (hiPSC-CMs; [8]): 58.4 ± 6.0 pmol/million cells
- Intracellular Concentration, Prodrug (hiPSC-CMs; [10]): 45.6 ± 2.0 pmol/million cells
- Intracellular Concentration, NTP Metabolite (hiPSC-CMs; [11]): BLOQ
- Intracellular Concentration, Prodrug (hiPSC-CMs; [12]): 50.1 ± 2.1 pmol/million cells
- Intracellular Concentration, Prodrug (hiPSC-CMs; [14]): 46.7 ± 3.7 pmol/million cells
- Intracellular Concentration, NTP Metabolite (hiPSC-CMs; [15]): BLOQ*
- Cardiac sofosbuvir concentration ([7]; cumulative IV sofosbuvir + amiodarone): ~ 6 nmol/g tissue
- Cardiac sofosbuvir concentration ([7]; cumulative IV sofosbuvir alone): ~ 8 nmol/g tissue
- Cleavage intermediate metabolite and NTP metabolite in cardiac tissue [3]: present
- Change in IMP amplitude (RTCA Cardio) (hiPSC-CM syncytia; [17]): −97% ± 2%
- Change in beating rate (IMP-measured, RTCA Cardio) (hiPSC-CM syncytia; [17]): +146% ± 11%
- IMP amplitude (hiPSC-CM syncytia; 11 μM sofosbuvir co-applied with 0.3 μM amiodarone): below the limit of detection
- Effect on FP rate (hiPSC-CM syncytia): Concentration-dependent, steady-state effects
- Effect on IMP amplitude (hiPSC-CM syncytia): Concentration-dependent, steady-state effects
